# Results from PubChem BioAssay AID2060486 (Molecular Pharmacology Branch, DTP, NCI, 2025).
# Tested on: IGROV1 complex spheroids (HUVEC, MSC), viability % test/control
# Experiment: Anticancer human tumor IGROV1 cell line growth inhibition [GQUAD];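 note: spheroids exposed to compounds for 7 days before readout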;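 for viability, T/C: 100% = DMSO vehicle control viability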
# Details: for IC50: curve of first compound; for viability, T/C: stronger effect = lower value
# Method in brief: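 Multi-cell-type spheroids of tumor cells with HUVEC and mesenchymal stem cells, treated with drug combinations. Concentrations descend in half-log steps from near clinical Cmax, or from 10 microM where Cmax is unknown; viability read-out.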
# [1] = second compound 0.0316 µM, first compound 0.0316 µM
# [2] = second compound 0.0316 µM, first compound 0.316 µM
# [3] = second compound 0.1 µM, first compound 0.0316 µM
# [4] = second compound 0.1 µM, first compound 0.316 µM
# [5] = second compound 0.316 µM, first compound 0.0316 µM
# [6] = second compound 0.316 µM, first compound 0.316 µM
# [7] = second compound 1 µM, first compound 0.0316 µM
# [8] = second compound 1 µM, first compound 0.316 µM
# [9] = second compound 3.16 µM, first compound 0.0316 µM
# [10] = second compound 3.16 µM, first compound 0.316 µM
# [11] = second compound 10 µM, first compound 0.0316 µM
# [12] = second compound 10 µM, first compound 0.316 µM
smiles,measurement,setting,value
CCc1c2c(nc3ccc(O)cc13)-c1cc3c(c(=O)n1C2)COC(=O)[C@]3(O)CC + Cc1[nH]c2ccc(F)cc2c1-c1nc2c3cccnc3c3ncccc3c2[nH]1,IC50,second compound 0.0316 µM,1.23 nM
same,IC50,second compound 0.1 µM,1.22 nM
same,IC50,second compound 0.316 µM,< 0.999 nM
same,IC50,second compound 1 µM,< 0.999 nM
same,IC50,second compound 3.16 µM,< 0.999 nM
same,IC50,second compound 10 µM,< 0.999 nM
same,"viability, T/C","second compound 0.0316 µM, first compound 0.000999 µM",57.7%
same,"viability, T/C","second compound 0.0316 µM, first compound 0.00316 µM",15.4%
same,"viability, T/C","second compound 0.0316 µM, first compound 0.00999 µM",10.2%
same,"viability, T/C",[1],6.35%
same,"viability, T/C","second compound 0.0316 µM, first compound 0.0999 µM",4.8%
same,"viability, T/C",[2],1.3%
same,"viability, T/C","second compound 0.1 µM, first compound 0.000999 µM",58%
same,"viability, T/C","second compound 0.1 µM, first compound 0.00316 µM",12.6%
same,"viability, T/C","second compound 0.1 µM, first compound 0.00999 µM",10.4%
same,"viability, T/C",[3],6.87%
same,"viability, T/C","second compound 0.1 µM, first compound 0.0999 µM",4.33%
same,"viability, T/C",[4],1.74%
same,"viability, T/C","second compound 0.316 µM, first compound 0.000999 µM",36%
same,"viability, T/C","second compound 0.316 µM, first compound 0.00316 µM",18.3%
same,"viability, T/C","second compound 0.316 µM, first compound 0.00999 µM",10.3%
same,"viability, T/C",[5],7.63%
same,"viability, T/C","second compound 0.316 µM, first compound 0.0999 µM",4.58%
same,"viability, T/C",[6],1.81%
same,"viability, T/C","second compound 1 µM, first compound 0.000999 µM",4.92%
same,"viability, T/C","second compound 1 µM, first compound 0.00316 µM",3.7%
same,"viability, T/C","second compound 1 µM, first compound 0.00999 µM",3.69%
same,"viability, T/C",[7],2.84%
same,"viability, T/C","second compound 1 µM, first compound 0.0999 µM",2.04%
same,"viability, T/C",[8],0.8%
same,"viability, T/C","second compound 3.16 µM, first compound 0.000999 µM",4.87%
same,"viability, T/C","second compound 3.16 µM, first compound 0.00316 µM",4.58%
same,"viability, T/C","second compound 3.16 µM, first compound 0.00999 µM",3.82%
same,"viability, T/C",[9],3.33%
same,"viability, T/C","second compound 3.16 µM, first compound 0.0999 µM",1.4%
same,"viability, T/C",[10],0.62%
same,"viability, T/C","second compound 10 µM, first compound 0.000999 µM",4.11%
same,"viability, T/C","second compound 10 µM, first compound 0.00316 µM",3.78%
same,"viability, T/C","second compound 10 µM, first compound 0.00999 µM",4.08%
same,"viability, T/C",[11],3.15%
same,"viability, T/C","second compound 10 µM, first compound 0.0999 µM",1.92%
same,"viability, T/C",[12],0.73%
Cc1cccc(N(C)C(=O)C2C(O)CCN2c2nc(C)cc(C(F)(F)F)c2C#N)c1 (centres undefined) + Cc1[nH]c2ccc(F)cc2c1-c1nc2c3cccnc3c3ncccc3c2[nH]1,IC50,second compound 0.0316 µM,> 10000 nM
same,IC50,second compound 0.1 µM,> 10000 nM
same,IC50,second compound 0.316 µM,> 10000 nM
same,IC50,second compound 1 µM,< 31.6 nM
same,IC50,second compound 3.16 µM,< 31.6 nM
same,IC50,second compound 10 µM,< 31.6 nM
same,"viability, T/C",[1],108%
same,"viability, T/C","second compound 0.0316 µM, first compound 0.1 µM",82.3%
same,"viability, T/C",[2],105%
same,"viability, T/C","second compound 0.0316 µM, first compound 1 µM",76.1%
same,"viability, T/C","second compound 0.0316 µM, first compound 3.16 µM",98%
same,"viability, T/C","second compound 0.0316 µM, first compound 10 µM",100%
same,"viability, T/C",[3],105%
same,"viability, T/C","second compound 0.1 µM, first compound 0.1 µM",82.2%
same,"viability, T/C",[4],107%
same,"viability, T/C","second compound 0.1 µM, first compound 1 µM",69.1%
same,"viability, T/C","second compound 0.1 µM, first compound 3.16 µM",105%
same,"viability, T/C","second compound 0.1 µM, first compound 10 µM",105%
same,"viability, T/C",[5],83.7%
same,"viability, T/C","second compound 0.316 µM, first compound 0.1 µM",53.2%
same,"viability, T/C",[6],70%
same,"viability, T/C","second compound 0.316 µM, first compound 1 µM",78.8%
same,"viability, T/C","second compound 0.316 µM, first compound 3.16 µM",94.7%
same,"viability, T/C","second compound 0.316 µM, first compound 10 µM",76.3%
same,"viability, T/C",[7],4%
same,"viability, T/C","second compound 1 µM, first compound 0.1 µM",6.22%
same,"viability, T/C",[8],5.36%
same,"viability, T/C","second compound 1 µM, first compound 1 µM",4.57%
same,"viability, T/C","second compound 1 µM, first compound 3.16 µM",4.11%
same,"viability, T/C","second compound 1 µM, first compound 10 µM",2.68%
same,"viability, T/C",[9],3.63%
same,"viability, T/C","second compound 3.16 µM, first compound 0.1 µM",4.69%
same,"viability, T/C",[10],4.7%
same,"viability, T/C","second compound 3.16 µM, first compound 1 µM",4.75%
same,"viability, T/C","second compound 3.16 µM, first compound 3.16 µM",3.97%
same,"viability, T/C","second compound 3.16 µM, first compound 10 µM",2.92%
same,"viability, T/C",[11],4.3%
same,"viability, T/C","second compound 10 µM, first compound 0.1 µM",3.62%
same,"viability, T/C",[12],4.75%
same,"viability, T/C","second compound 10 µM, first compound 1 µM",3.64%
same,"viability, T/C","second compound 10 µM, first compound 3.16 µM",4.04%
same,"viability, T/C","second compound 10 µM, first compound 10 µM",3.25%
